Reference: publication PMC7812675 (ACS Medicinal Chemistry Letters, 2020)
Like-named read-outs stand apart in the source and are kept apart here. Square brackets hold non-standard residues; d marks the D form. Peptide text beside a SMILES is read from it. Hyp = O=C(O)[C@@H]1C[C@@H](O)CN1

What was measured:
[1] = target: T1, MsCI4 (MsCI4WW/FF) (Magnetospirillum gryphiswaldense, UniProt A4TVL0, W36F/W59F); conditions: MANT-uracil reporter
[2] = target: T2, VHL/EloB/EloC complex (VBC) (Homo sapiens, UniProt P40337); assay: Competitive MST assay, unlabeled peptides against VHL and FAM reporter peptide; assay type: binding; conditions: ± confidence interval
T2 construct: VHL54-213 fused to an N-terminal TwinStrep-tag; TwinStrep-tag (TEV site) (N, cleaved yes); made in house; host or cells: E. coli BL21(DE3)

[3] = target: T3, Magnetospirillum gryphiswaldense cereblon isoform 4 (MsCI4) (Magnetospirillum gryphiswaldense, UniProt A4TVL0); assay type: binding; conditions: initial fluorescence measurement, 200 nM BODIPY-uracil
T3 construct: made in house
T3 sequence (A4TVL0 1-124): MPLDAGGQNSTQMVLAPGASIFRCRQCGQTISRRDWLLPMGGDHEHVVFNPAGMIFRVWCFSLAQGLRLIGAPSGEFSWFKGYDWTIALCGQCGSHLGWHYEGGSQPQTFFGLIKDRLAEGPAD

[4] = target: T4, human CRBN (hCRBN) thalidomide binding domain (hTBD) (Homo sapiens, UniProt Q96SW2); assay: Initial fluorescence (quenching) titration of hTBD against BODIPY-uracil; conditions: initial fluorescence measurement, 200 nM BODIPY-uracil
T4 construct: 319-425; GST (thrombin site) (N, cleaved yes); made in house; host or cells: E. coli Rosetta 2(DE3)pLysS

[5] = target: T4, human CRBN (hCRBN) thalidomide binding domain (hTBD); assay: Competitive MST assay with BODIPY-uracil reporter and hTBD; conditions: for binding to hTBD in the MST assay (words; n.b., no binding): 10 µM hTBD/200 nM BODIPY-uracil
[6] = target: T1, MsCI4 (MsCI4WW/FF); conditions: cited from earlier work
[7] = target: T3, Magnetospirillum gryphiswaldense cereblon isoform 4 (MsCI4); assay type: binding; conditions: competitive DMSO titration
[8] = IC50, FAM-11mer competition, 570 nM VBC/20 nM FAM-11mer reporter
[9] = IC50, FAM-19mer competition, 80 nM VBC/20 nM FAM-19mer reporter

O=C1CN(/N=C/c2ccccc2)C(=O)N1 [1-Benzylidene-aminohydantoin, 1-benzylideneaminohydantoin]
binding to MsCI4 in the FRET assay (words) [1]: absence of affinity

O=C1CN(/N=C/c2ccccc2[N+](=O)[O-])C(=O)N1 [2-NP-AHD, 1-(2-nitrobenzylideneamino)hydantoin]
binding to MsCI4 in the FRET assay (words) [1]: absence of affinity

CC[C@H](C)[C@H](NC(=O)[C@H](Cc1ccc(O)cc1)NC(=O)[C@@H]1C[C@@H](O)CN1C(=O)[C@H](C)NC(=O)[C@H](CC(C)C)NC(=O)[C@H](C)NC(=O)[C@H](CCC(=O)O)NC(=O)[C@@H](N)CC(=O)O)C(=O)N1CCC[C@H]1C(=O)N[C@@H](CCSC)C(=O)N[C@@H](CC(=O)O)C(=O)O [11mer] (H-DEALA[Hyp]YIPMD-OH)
IC50 [2, 8]: 1800 ± 810 nM
IC50 [2, 9]: 1420 ± 950 nM

CC[C@H](C)[C@H](NC(=O)[C@H](Cc1ccc(O)cc1)NC(=O)[C@@H]1C[C@@H](O)CN1C(=O)[C@H](C)NC(=O)[C@H](CC(C)C)NC(=O)[C@H](C)NC(=O)[C@H](CCC(=O)O)NC(=O)[C@@H](N)CC(=O)O)C(=O)N1CCC[C@H]1C(=O)N[C@@H](CCSC)C(=O)N[C@@H](CC(=O)O)C(=O)N[C@@H](CC(=O)O)C(=O)N[C@@H](CC(=O)O)C(=O)N[C@@H](Cc1ccccc1)C(=O)N[C@@H](CCC(N)=O)C(=O)N[C@@H](CC(C)C)C(=O)N[C@@H](CCCNC(=N)N)C(=O)N[C@@H](CO)C(=O)N[C@@H](Cc1ccccc1)C(=O)O [19mer]
IC50 [2, 8]: 803 ± 450 nM
IC50 [2, 9]: 572 ± 260 nM

CC1=CC(C)=[N+]2C1=C(CCC(=O)NCCn1ccc(=O)[nH]c1=O)c1c(C)cc(C)n1[B-]2(F)F [BODIPY-uracil]
Kd [3]: 3.8 µM
Kd [4]: 11 µM

O=C1CN(/N=C/c2ccc([N+](=O)[O-])o2)C(=O)N1 [Nitrofurantoin, nitrofurantoin]
binding to hTBD in the MST assay (words; n.b., no binding) [5]: did not show any binding
binding to MsCI4 in the FRET assay (words) [1]: do not show binding
binding to MsCI4 in the FRET assay (words) ([1]; listed as nitrofurantoin): did not show any binding

O=c1ccn([C@@H]2O[C@H](COP(=O)(O)O)[C@@H](O)[C@H]2O)c(=O)[nH]1 [UMP, uridine-5′-monophosphate]
binding to hTBD in the MST assay (words; n.b., no binding) [5]: abolished binding completely

O=c1ccn([C@@H]2O[C@H](CO)[C@@H](O)[C@H]2O)c(=O)[nH]1 [Uridine, uridine]
affinity to MsCI4 in the FRET assay [6]: high affinity

DMSO
Ki as corresponding concentration of DMSO, MsCI4 [7]: 0.08 % (v/v)
Ki as corresponding concentration of DMSO, hTBD ([5]; competitive DMSO titration): 1.0 % (v/v)
